Laboratory results taken from US20180340174A1, “METHOD FOR IDENTIFICATION OF MOLECULES WITH DESIRED CHARACTERISTICS” (NANOCORE APS, priority 2014, published 2018).
Where two headings read alike, the source gives them in different places. Each block holds one molecule with its values, some of them ahead of it. Where no end group is shown, it is not given here.

Key:
[1] = molecular target: T1, soluble epoxide hydrolase (sEH) (Homo sapiens, UniProt P34913); details: Litovchick 2015; cited from earlier work
T1 sequence (P34913 1-555): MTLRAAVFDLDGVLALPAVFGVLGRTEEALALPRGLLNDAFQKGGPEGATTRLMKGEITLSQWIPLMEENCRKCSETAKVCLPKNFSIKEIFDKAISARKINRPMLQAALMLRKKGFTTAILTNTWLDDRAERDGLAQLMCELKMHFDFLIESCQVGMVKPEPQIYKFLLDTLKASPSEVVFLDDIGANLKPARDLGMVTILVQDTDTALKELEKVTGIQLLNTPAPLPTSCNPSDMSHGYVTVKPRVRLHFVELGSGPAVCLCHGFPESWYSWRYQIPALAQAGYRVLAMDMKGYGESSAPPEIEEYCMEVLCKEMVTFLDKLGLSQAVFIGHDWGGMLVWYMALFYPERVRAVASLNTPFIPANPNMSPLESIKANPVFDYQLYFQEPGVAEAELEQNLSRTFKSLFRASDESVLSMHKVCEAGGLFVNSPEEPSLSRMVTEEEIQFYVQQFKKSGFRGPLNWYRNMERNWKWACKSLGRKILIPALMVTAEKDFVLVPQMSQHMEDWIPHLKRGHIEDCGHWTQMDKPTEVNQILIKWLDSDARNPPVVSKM

[2] = Seker et al. 2011; Chen et al. 2006; cited from earlier work
[3] = Seker et al. 2011; cited from earlier work
[4] = Serizawa et al. 2007; bound to PMMA (isotactic); cited from earlier work
[5] = Serizawa et al. 2007; bound to PMMA (syndiotactic); cited from earlier work
[6] = Eijima et al. 2010; bound to PPV (hyper-branched); cited from earlier work
[7] = Eijima et al. 2010; bound to PPV (linear); cited from earlier work
[8] = Serizawa et al. 2007; cited from earlier work
[9] = Serizawa et al. 2007; bound to Polystyrene (syndiotactic); cited from earlier work
[10] = Serizawa et al. 2007; bound to Polystyrene (atactic); cited from earlier work
[11] = Serizawa et al. 2007; bound to Polystyrene (isotactic); cited from earlier work
[12] = Serizawa et al. 2007; cited from earlier work; remark: listed apart in the source
[13] = Wang et al. 2003; cited from earlier work
[14] = Enrichment of CNT-binding peptide A2 displayed on bacteriophages versus mini-M13, blue/white colony counting
[15] = Li et al. 2013; cited from earlier work
[16] = Islam et al. 2012; bound to Ceramic fluorapatite; cited from earlier work
[17] = Islam et al. 2012; bound to Ceramic hydroxyl-apatite; cited from earlier work
[18] = Matsuno et al. 2008; bound to PLLA (melt crystallization); cited from earlier work
[19] = Matsuno et al. 2008; bound to PMMA (atactic); cited from earlier work
[20] = Matsuno et al. 2008; bound to PLLA (amorphous); cited from earlier work
[21] = Matsuno et al. 2008; bound to PLLA (layer by layer); cited from earlier work
[22] = Matsuno et al. 2008; bound to PDLA; cited from earlier work
[23] = Sano et al. 2005; Meyers et al. 2007; cited from earlier work
[24] = Weiger et al. 2010; read-out: KD to HA; cited from earlier work
[25] = Selection of polynucleotide-tagged molecules on carbon nanotubes without and with PPyCl repeat units in the medium (Example 15.0.0.0); format: binding
Experimental: In this example library molecules (M) are peptides linked by […] (L) to DNA tags encoding the peptide. […] Identification of carbon nanotube binding molecules is described in Brown et al. (Small. 2008 April; 4 (4):416-20). The CNT target is prepared from single-walled carbon nanotubes (purified HiPCO, Carbon Nanotechnologies Inc., US) used as purchased. Bundles and individual tubes are suspended in dichloroethane by sonication and deposited on pieces of double side polished Si wafers. The CNT mats are inspected by scanning electron microscopy. A uniform, dense coverage on both sides of the 1 cm2 substrates is achieved by repeatedly depositing drops from the suspension, rinsing with isopropanol, and blow drying with nitrogen. Test enrichments are conducted inn a phosphate buffer (PKT). The enrichment for adhesion to CNT mats using solution conditions is done similarly to other searches for CNT binders. The population recovered from a single cycle of enrichment for binding to CNTs in a Tris-HCl buffer (TNT) differed from that obtained in PKT.
Binding molecules, which bind efficiently to a filler (carbon nanotubes) but not to a polymer matrix (PPyCl) of a composite material, are identified essentially as described in example 1.1.1.1. […]

Molecule: CN(CCn1cccn1)C(=O)c1ccc(-c2cccc(C(=O)NC3CCCCC3)c2)nc1 [compound 12]
enrichment over two affinity-mediated selection steps compared to the average within the naïve library [1]: approximately 30,000 fold

Molecule: CHKKPSKSC
Kd [2]: 4.1 nM

Molecule: CPTSTGQAC
Kd [3]: 280 nM

Molecule: CTLHVSSYC
Kd [3]: 1100 nM

Molecule: ELWRPTR
Kd [4]: 3600 nM
Kd [5]: 150000 nM

Molecule: ELWSIDTSAHRK
Kd [6]: 27000 nM
Kd [7]: 13000 nM

Molecule: FPGHSGP
Kd [8]: 0.1 nM

Molecule: FPGRPSP
Kd [9]: 0.0085 nM
Kd [10]: 0.031 nM

Molecule: FSWEAFA
Kd [9]: 0.0061 nM
Kd [10]: 0.085 nM
Kd [11]: 0.034 nM

Molecule: GETQCAA
Kd [9]: 0.0074 nM
Kd [10]: 0.034 nM

Molecule: GETRAPL
Kd [9]: 0.0067 nM
Kd [10]: 0.067 nM
Kd [11]: 0.036 nM

Molecule: HKPDANR
Kd [12]: 0.025 nM

Molecule: HLESTPG
Kd [9]: 0.0079 nM
Kd [10]: 0.1 nM
Kd [11]: 0.065 nM

Molecule: HTAQSTA
Kd [9]: 0.01 nM
Kd [10]: 0.014 nM

Molecule: HTDWRLGTWHETS
Kd [6]: 1300 nM
Kd [7]: 19000 nM

Molecule: HWKHPWGAWDTL
Kd [13]: 50000 nM

Enrichment fold ([14]; 1 wash, CNT 0.02 mg/ml, 1.1E+9 bacteriophages): 100 fold
Enrichment fold ([14]; 3 washes, CNT 0.02 mg/ml, 1.1E+9 bacteriophages): 85 fold
Enrichment fold ([14]; 10 washes, CNT 0.02 mg/ml, 1.1E+9 bacteriophages): 91 fold
Enrichment fold ([14]; one wash, CNT 0.02 mg/ml, 1.1E+11 bacteriophages): 2 fold
Enrichment fold ([14]; one wash, CNT 0.2 mg/ml, 1.1E+9 bacteriophages): 23 fold
Enrichment fold ([14]; one wash, CNT 0.2 mg/ml, 1.1E+11 bacteriophages): 7 fold
Enrichment fold ([14]; one wash, CNT 2 mg/ml, 1.1E+9 bacteriophages): 4 fold
Enrichment fold ([14]; one wash, CNT 2 mg/ml, 1.1E+11 bacteriophages): 10 fold
Enrichment fold ([14]; ten washes with 1 min. sonication at 35 kHz and 160 W during washing, CNT 0.2 mg/ml, 1.1E+11 bacteriophages): 15 fold
Enrichment fold ([14]; ten washes, CNT 0.02 mg/ml, 1.1E+11 bacteriophages): 8 fold
Enrichment fold ([14]; ten washes, CNT 0.2 mg/ml, 1.1E+9 bacteriophages): 17 fold
Enrichment fold ([14]; ten washes, CNT 0.2 mg/ml, 1.1E+11 bacteriophages): 19 fold
Enrichment fold ([14]; ten washes, CNT 2 mg/ml, 1.1E+9 bacteriophages): 2 fold
Enrichment fold ([14]; ten washes, CNT 2 mg/ml, 1.1E+11 bacteriophages): 3 fold
Enrichment fold ([14]; three washes with 1 min. sonication at 35 kHz and 160 W during washing, CNT 0.2 mg/ml, 1.1E+11 bacteriophages): 17 fold
Enrichment fold ([14]; three washes, CNT 0.02 mg/ml, 1.1E+11 bacteriophages): 16 fold
Enrichment fold ([14]; three washes, CNT 0.2 mg/ml, 1.1E+9 bacteriophages): 16 fold
Enrichment fold ([14]; three washes, CNT 0.2 mg/ml, 1.1E+11 bacteriophages): 16 fold
Enrichment fold ([14]; three washes, CNT 2 mg/ml, 1.1E+9 bacteriophages): 2 fold
Enrichment fold ([14]; three washes, CNT 2 mg/ml, 1.1E+11 bacteriophages): 4 fold
Molecule: IFRLSWGTYFS [A2]
Kd [15]: 20000 nM

Molecule: KPRSVSG
Kd [16]: 5400 nM
Kd [17]: 7200 nM

Molecule: QLMHDYR
Kd [18]: 16000 nM
Kd [19]: 180000 nM
Kd [20]: 150000 nM
Kd [21]: 67000 nM
Kd [22]: 21000 nM

Molecule: QTWPPPLWFSTS
Kd [2]: 810 nM

Molecule: RHEPPLA
Kd [9]: 0.011 nM
Kd [10]: 0.056 nM
Kd [11]: 0.021 nM

Molecule: RKLPDAPGMHTW
Kd [23]: 13000 nM

Molecule: RLNPPSQMDPPF
Kd [2]: 8300 nM

Molecule: SCSDCLKSVDFIPSSLASS
Kd [23]: 250 nM

Molecule: SVSVGMKPSPRPGGGK
Kd [24]: 14100 nM

Molecule: THLPWQT
Kd [8]: 0.067 nM

Molecule: YLTMPTP
Kd [9]: 0.005 nM
Kd [10]: 0.022 nM

Molecule: polynucleotide-tagged THRTSTLDYFVI-pyrene: polynucleotide-tagged peptide-pyrene which can bind to both carbon nanotubes and PPyCl (also: polynucleotide tag, site not given here)
Outcome of selection on carbon nanotubes ([25]; first experiment, medium as in example 1.1.1.1): identified as carbon nanotube binding molecules
Outcome of selection on carbon nanotubes ([25]; second experiment, medium comprises repeat units of PPyCl): removed during the partitioning step
